Measurements taken from patent US20250207131A1, “MODIFIED RNA AGENTS WITH REDUCED OFF-TARGET EFFECT” (Alnylam Pharmaceuticals, Inc., priority 2018, published 2025).
In the oligonucleotide strings, read from the 5' end, every base follows the letter of its sugar. An asterisk marks phosphorothioate; unmarked linkages are phosphodiester. Other units and linkages are bracketed, terminal groups are in braces. A string of capitals states the bases alone. [5'S-Me-N] = (S)-5'-C-methyl nucleoside (N: the base); d = 2'-deoxy (DNA); r = 2'-OH (RNA)

Tests used:
phosphodiesterase II = assay: Stability toward 5′-specific exonuclease (phosphodiesterase II); format: in vitro ADME; settings: oligo 0.1 mg/mL, 50 mM NaOAc (pH 6.5), 10 mM MgCl2; for Half-lives (T1/2), ty2: Phosphodiesterase-II 500 mU/mL; for Half-lives (T1/2), t12: reduced Phosphodiesterase-II concentration 100 mU/mL
Experimental: Stability of modified oligonucleotides toward 3′- or 5′-specific exonucleases: Oligonucleotides were prepared in a final concentration of 0.1 mg/mL in either 50 mM Tris (pH 7.2), 10 mM MgCl2 or 50 mM sodium acetate (pH 6.5), 10 mM MgCl2 for assessing the stability towards 3′- or 5′-specific exonucleases, respectively. The exonuclease (150 mU/mL SVPDE for 3′-stability or 500 mU/mL phosphodiesterase II for 5′-stability) was added immediately prior to analysis via IEX HPLC (dionex DNAPac PA200, 4×250 mm) using a gradient of 37-52% mobile phase (1 M NaBr, 20 mM sodium phosphate, pH 11, 15% MeCN; stationary phase: 20 mM sodium phosphate, 15% MeCN, pH 11) over 7.5 min with a flow of 1 mL/min. Samples were analyzed at given time points for up to 24 h. The quantity of full length oligonucleotides was determined as the area under the curve at A260. Percent full length oligonucleotides was calculated by dividing by the area under the curve at t=0 and multiplying by 100. Activity of enzyme was verified for each experiment by including a oligodeoxythymidylate with a terminal phosphorothioate linkage (5′-T19·T (SEQ ID NO: 708) or 5′-T·T19 (SEQ ID NO: 708) for 3′- or 5′-exonuclease activity, respectively). Each aliquot of enzyme was thawed just prior to the experiment. The half-life was determined by fitting to first order kinetics.
5′-Nuclease Stability:_To evaluate the 5′-exonuclease stability of enantiomerically pure (R)- and (S)-5′-C-methyl (C5′-Me) Guanosine substituted nucleosides a dT20 template sequence (“dT20” disclosed as SEQ ID NO: 1) was modified at the 5′-end with one modified nucleotide via PO or PS linkages (Table 13). The structures of the compounds are shown below with guanosine for comparison.
A dT20 template (“dT20” disclosed as SEQ ID NO: 1) having 5′end dT with PS linkages and 5′end Guanosine (G) with either PO or PS linkages were used as the control. ONs were incubated with Phosphodiesterase-II (500 mU/mL), and the half-life (T½) of each modified ON was determined by HPLC-based quantification of the full-length ON as a function of time. The results are summarized in Table 13 and HPLC stability profiles are depicted in FIGS. 24A and 24B showing decay curve of dT20 (SEQ ID NO: 1) modified at the 5′ end with Guanosine and (R) or (S)-5′-C-methyl Guanosine (C5′-MeG) with PO or PS linkages upon incubation with 5′ exonucleases-phosphodiesterase-II as a function of time. FIG. 24A is for the following conditions: a) enzyme conc. 500 mU/mL, Oligo Conc. 0.1 mg/mL, 50 mM NaOAc (pH-6.5):10 Mm MgCl2. FIG. 24B is for the following conditions: enzyme conc. 100 mU/mL, Oligo Conc. 0.1 mg/mL, 50 mM NaOAc (pH-6.5):10 mM MgCl2. The percentage full length ON is calculated by dividing the area under the peak corresponding to full length ON at a given time point by the full length at t=0 and multiplied by 100.
Stability of modified oligonucleotides toward 3′- or 5′-specific exonucleases: Modified oligonucleotides were prepared in a final concentration of 0.1 mg/mL in either 300 mM Tris (pH 7.2), 60 mM MgCl2 or 300 mM sodium acetate (pH 6.5), 60 mM MgCl2 for assessing the stability towards 3′- or 5′-specific exonucleases, respectively. […] Samples were analyzed at given time points for up to 24 h. The quantity of full length oligonucleotides was determined as the area under the curve at A260. Percent full length oligonucleotides was calculated by dividing by the area under the curve at t=0 and multiplying by 100. […]

Pol-RMT = Pol-RMT (Homo sapiens, UniProt O00411); assay: Triphosphate incorporation assay by Pol-RMT; format: biochemical; settings: 200 nM template, 50 nM primer, 300 nM enzyme, 1 mM or 100 μM NTPs, 30 min, 35° C.
Chain of Pol-RMT (O00411 42-1230, species assumed): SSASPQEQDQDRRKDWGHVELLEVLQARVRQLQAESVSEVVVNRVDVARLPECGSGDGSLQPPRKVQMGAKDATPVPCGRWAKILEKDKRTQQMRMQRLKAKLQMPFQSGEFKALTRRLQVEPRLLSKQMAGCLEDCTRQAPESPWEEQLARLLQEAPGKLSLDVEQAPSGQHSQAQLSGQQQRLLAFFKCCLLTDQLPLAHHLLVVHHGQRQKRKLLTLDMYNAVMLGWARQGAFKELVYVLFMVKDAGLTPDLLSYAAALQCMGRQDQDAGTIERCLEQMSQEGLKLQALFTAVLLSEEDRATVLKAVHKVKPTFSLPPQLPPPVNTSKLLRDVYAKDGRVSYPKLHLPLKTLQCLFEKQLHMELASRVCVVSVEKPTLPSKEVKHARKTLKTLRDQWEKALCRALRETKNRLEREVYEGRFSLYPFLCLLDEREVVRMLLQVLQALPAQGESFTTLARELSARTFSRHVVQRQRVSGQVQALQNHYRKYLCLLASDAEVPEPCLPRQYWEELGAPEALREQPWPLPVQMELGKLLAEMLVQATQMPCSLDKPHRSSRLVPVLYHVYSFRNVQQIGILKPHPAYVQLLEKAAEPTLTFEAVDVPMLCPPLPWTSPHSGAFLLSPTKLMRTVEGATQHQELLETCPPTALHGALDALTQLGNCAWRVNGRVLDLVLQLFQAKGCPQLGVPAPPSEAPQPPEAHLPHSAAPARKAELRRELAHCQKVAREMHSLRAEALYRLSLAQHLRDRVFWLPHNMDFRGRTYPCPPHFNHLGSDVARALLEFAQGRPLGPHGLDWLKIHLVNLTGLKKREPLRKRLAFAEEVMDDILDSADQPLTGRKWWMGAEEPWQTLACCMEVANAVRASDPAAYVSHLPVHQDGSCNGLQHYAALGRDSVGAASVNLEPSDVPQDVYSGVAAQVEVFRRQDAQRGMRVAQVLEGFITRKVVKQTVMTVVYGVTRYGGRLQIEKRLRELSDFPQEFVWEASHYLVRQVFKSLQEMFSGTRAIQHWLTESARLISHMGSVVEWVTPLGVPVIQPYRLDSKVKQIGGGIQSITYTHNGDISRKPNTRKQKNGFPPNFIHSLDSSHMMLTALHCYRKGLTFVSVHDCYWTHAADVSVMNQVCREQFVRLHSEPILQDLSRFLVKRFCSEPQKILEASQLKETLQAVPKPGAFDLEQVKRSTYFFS
Experimental: (§1) 5′-(R)- and (S)—C-Me-guanosine triphosphate Evaluations: 5′-(R)- and (S)—C-Me-guanosine triphosphate were evaluated with Pol-RMT and DNA Pol-γ. Mitochondrial toxicity is a common feature with nucleoside analog drugs (liver/metabolic effects, myopathies, peripheral neuropathy). Replication of mitochondria occurs during all phases of cell cycle, including post-mitotic cells. Mito replication in post-mitotic cells becomes preferential consumer of endogenous nucleotide pools. Mitochondrial polymerases (pol-γ, Pol-RMT) have limited exonuclease (proofreading) capability. Alterations/effects to nuclear DNA more likely to manifest in other test systems. […] Analytical IEX-HPLC with fluorescence detection for optimal resolution of primer-extended products is used to detect—especially important in competition mixtures. This assays was applied for the assessment of incorporation efficiencies.
The reaction conditions were; 200 nM template, 50 nM primer, 300 nM enzyme and 1 mM or 100 μM NTPs, 30 min, 35° C.

DNA Pol-γ = biological target: T1, DNA Pol-γ (Homo sapiens, UniProt P54098); assay: Triphosphate incorporation assay by DNA Pol-γ; format: biochemical; settings: 100 nM template, 100 nM primer, 40 Units of enzyme, 1 mM or 100 μM dNTPs, 30 min, 37° C.
T1 sequence (P54098 1-1239): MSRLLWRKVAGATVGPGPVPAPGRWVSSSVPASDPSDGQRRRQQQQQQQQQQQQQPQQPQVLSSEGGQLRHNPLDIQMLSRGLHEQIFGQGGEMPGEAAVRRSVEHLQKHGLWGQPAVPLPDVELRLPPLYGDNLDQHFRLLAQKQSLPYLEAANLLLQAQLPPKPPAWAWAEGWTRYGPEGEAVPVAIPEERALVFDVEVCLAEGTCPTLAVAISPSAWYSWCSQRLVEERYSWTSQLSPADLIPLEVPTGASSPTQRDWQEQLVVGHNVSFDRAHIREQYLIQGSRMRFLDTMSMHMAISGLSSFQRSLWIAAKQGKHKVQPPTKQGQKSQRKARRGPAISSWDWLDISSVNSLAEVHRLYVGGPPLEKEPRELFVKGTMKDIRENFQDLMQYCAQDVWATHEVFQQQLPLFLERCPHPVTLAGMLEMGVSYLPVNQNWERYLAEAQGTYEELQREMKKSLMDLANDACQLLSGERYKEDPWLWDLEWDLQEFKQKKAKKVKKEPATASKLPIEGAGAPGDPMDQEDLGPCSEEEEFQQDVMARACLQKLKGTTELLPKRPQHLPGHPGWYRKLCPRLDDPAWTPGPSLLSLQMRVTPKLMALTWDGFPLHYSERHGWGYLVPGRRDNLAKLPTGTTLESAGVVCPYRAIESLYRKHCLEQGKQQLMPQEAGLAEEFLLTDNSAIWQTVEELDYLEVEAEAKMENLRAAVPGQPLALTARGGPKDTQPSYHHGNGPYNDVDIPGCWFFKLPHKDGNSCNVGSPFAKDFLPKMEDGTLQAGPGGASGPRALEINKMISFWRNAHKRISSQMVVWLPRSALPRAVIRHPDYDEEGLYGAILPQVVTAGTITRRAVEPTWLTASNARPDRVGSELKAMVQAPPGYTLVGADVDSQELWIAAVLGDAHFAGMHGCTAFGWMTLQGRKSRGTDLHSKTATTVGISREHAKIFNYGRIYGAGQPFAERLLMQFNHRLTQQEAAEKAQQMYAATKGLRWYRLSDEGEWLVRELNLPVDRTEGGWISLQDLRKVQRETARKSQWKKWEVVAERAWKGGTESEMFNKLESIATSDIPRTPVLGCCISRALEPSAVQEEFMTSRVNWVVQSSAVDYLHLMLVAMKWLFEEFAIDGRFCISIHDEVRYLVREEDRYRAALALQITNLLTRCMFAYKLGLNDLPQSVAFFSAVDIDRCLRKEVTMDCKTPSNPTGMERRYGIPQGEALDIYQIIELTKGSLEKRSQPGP
Experimental: as §1
The reaction conditions were: Reaction: 100 nM template, 100 nM primer, 40 Units of enzyme and 1 mM or 100 μM dNTPs, 30 min, 37° C.; diluted to 5 nM primer and analyzed by FLD-IEX-HPLC (Ex: 437, Em: 483 nm).

Compound	Half-lives (T1/2), ty2 (phosphodiesterase II) [h]	Half-lives (T1/2), t12 (phosphodiesterase II) [h]	incorporation by Pol-RMT (Pol-RMT)	incorporation by Pol-γ (DNA Pol-γ)
SpodT19: (G5m)(dT)19, 5′-end (S)-5′-C-methyl guanosine, PO linkage ([5'S-Me-G]dTdTdTdTdTdTdTdTdTdTdTdTdTdTdTdTdTdTdT)	<1	<1	–	–
C[C@@H](OP(=O)(O)OP(=O)(O)OP(=O)(O)O)[C@H]1O[C@@H](n2cnc3c(=O)[nH]c(N)nc32)[C@H](O)[C@@H]1O [5′-(R)—C-Me-GTP, 5′-(R)—C-Me-guanosine triphosphate]	–	–	appears not incorporate in Pol-RMT	Neither 5′-(S) nor (R)—C-Me-Gtp incorporate in Pol-γ at high concentrations
GpsdT19: Gs(dT)19, 5′ guanosine, PS linkage (DNA rG*dTdTdTdTdTdTdTdTdTdTdTdTdTdTdTdTdTdTdT)	41	–	–	–
GpodT19: G(dT)19, 5′ guanosine, PO linkage (DNA rGdTdTdTdTdTdTdTdTdTdTdTdTdTdTdTdTdTdTdT)	<1	<1	–	–
C[C@H](OP(=O)(O)OP(=O)(O)OP(=O)(O)O)[C@H]1O[C@@H](n2cnc3c(=O)[nH]c(N)nc32)[C@H](O)[C@@H]1O [5′-(S)—C-Me-G triphosphate (GTP), 5′-(S)—C-Me-guanosine triphosphate]	–	–	incorporates in Pol-RMT at high concentrations	Neither 5′-(S) nor (R)—C-Me-Gtp incorporate in Pol-γ at high concentrations
